Source: patent US20240156802A1, “METHODS FOR TREATING DISORDERS AMELIORATED BY MUSCARINIC RECEPTOR ACTIVATION” (KARUNA THERAPEUTICS, INC., priority 2021, published 2024)

Key:
[1] = Phase 1b exploratory PK of xanomeline in healthy elderly subjects given KarXT; format: in vivo, human; settings: for blood levels in healthy elderly subjects compared with adults under 65: Cohorts 1 and 2, lower oral doses; for Cmax: human, plasma, oral
Protocol: (§1) The purpose of this Phase 1b clinical trial was to evaluate the safety and tolerability of KarXT in healthy elderly volunteers and to assess its potential efficacy and safety in dementia-related psychosis (DRP). In the Phase 1b trial, the various doses and ratios were evaluated for both xanomeline and trospium in healthy elderly volunteers using a flexible dosing protocol titrated over about 2 to 3 weeks. The maximum dose was reached on Day 12, 15, and 17 in Cohorts 1, 2, and 3, respectively. Dosing lasted a total of 14, 18, and 20 days, respectively. Each cohort consisted of 16 healthy elderly volunteers.
(§2) This was a Phase 1, randomized, double-blind, multiple-dose, adaptive-design study evaluating the safety, tolerability, and exploratory PK of KarXT in healthy elderly subjects. The study consisted of a screening period of up to 28 days. This inpatient investigative period included a treatment period and a post-treatment observation period. A follow-up visit was completed 7±3 days after administering the final dose of the study drug. For Cohort 1, the inpatient investigative period was up to 17 days, including admission, a treatment period of up to 14 days, and a 2-day post-treatment observation period. For Cohort 2, the inpatient investigative period was up to 21 days, including admission, a treatment period of up to 18 days, and a 2-day post-treatment observation period. For Cohort 3, the inpatient investigative period was up to 23 days, including admission, a treatment period of up to 20 days, and a 2-day post-treatment observation period.
Subjects assigned to active treatment in Cohorts 1 and 2 started treatment with a lead-in dose of KarXT for 2 days. Subjects assigned to active treatment in Cohort 3 started treatment with a lead-in dose of KarXT for 4 days. KarXT doses were increased beginning on Day 3 (or Day 5 for Cohort 3) according to cohort-specific plans (FIGURE S 1) to achieve the following final cohort-specific total daily dose (TDD) of KarXT, if tolerated: • Cohort 1: 200/40 mg • Cohort 2: 200/30 mg • Cohort 3: 150/20 mg
The assessment of adverse events, clinical laboratory samples, electrocardiograms (ECGs), vital signs (including orthostatic vital signs), urine output monitoring, Columbia-Suicide Severity Rating Scale (C-SSRS), serial PK sampling, and collecting saliva to measure saliva volume were performed at defined time points during the study.
Table 2 contains the xanomeline Cmax data collected on the final day of the dosing period for cohorts 1, 2, and 3 in the healthy elderly trial compared to day 28 (last day PK data was collected) in the EMERGENT-1 trial for a patient population of ages 18-60 inclusive.

[2] = 125/30 mg dose group in EMERGENT-1, day 28, ages 18-60, TDD 250 mg; cited from earlier work
[3] = 25-75 mg TID, 75-225 mg TDD; cited from earlier work
[4] = 26-week study of Alzheimer's disease; cited from earlier work
[5] = Phase 1b safety and tolerability of KarXT in healthy elderly subjects (adverse events); format: in vivo, human; settings: 30 mg TDD versus 40 mg TDD, given with xanomeline, normal elderly volunteers
Protocol: as §1
as §2, with “For Cohort 3, the inpatient investigative period was up to 23 days, including admission, a treatment period of up to 20 days, and a 2-day post-treatment observation period.” left out

| Cmax ([1]; Cohort 1, final day of dosing, average dose before PK 67 mg, average TDD 172 mg) [ng/mL] | Cmax ([1]; Cohort 2, final day of dosing, average dose before PK 61 mg, average TDD 156 mg) [ng/mL] | Cmax ([1]; Cohort 3, final day of dosing, average dose before PK 39 mg, average TDD 116 mg) [ng/mL] | mean plasma levels (Cmax) compared with EMERGENT-1 (200-250 mg xanomeline) ([1]; oral xanomeline about 100 to 200 mg per day, healthy elderly volunteers) | Structure (SMILES) | blood levels in healthy elderly subjects compared with adults under 65 [1] | mean Cmax of xanomeline [2] [ng/mL] | effect on schizophrenia [3] | dropout rate [4] [%] | tolerability by trospium dose [5] |
| --- | --- | --- | --- | --- | --- | --- | --- | --- | --- |
| 7.3 ± 2 | 14.2 ± 5.3 | 7.2 ± 2 | comparable to, or slightly higher than | CCCCCCOc1nsnc1C1=CCCN(C)C1 [Xanomeline, xanomeline] | higher blood levels | 9.4 ± 1.5 | alleviated | 56 |  |
|  |  |  |  | O=C(O[C@H]1C[C@H]2CC[C@@H](C1)[N+]21CCCC1)C(O)(c1ccccc1)c1ccccc1 [trospium, trospium chloride] | higher blood levels |  |  |  | performed better |
